The source made the active and inactive calls. No rule for the calls is given here.
Key:
[1] = target: T1, Androgen receptor (Homo sapiens) (UniProt P10275); test: Antagonist activity at human androgen receptor expressed in human HeLa cells assessed as inhibition of DHT-induced response after 40 hrs by luciferase/beta-galactosidase-based reporter gene assay; assay type: functional, cell-based
T1 sequence (whole entry): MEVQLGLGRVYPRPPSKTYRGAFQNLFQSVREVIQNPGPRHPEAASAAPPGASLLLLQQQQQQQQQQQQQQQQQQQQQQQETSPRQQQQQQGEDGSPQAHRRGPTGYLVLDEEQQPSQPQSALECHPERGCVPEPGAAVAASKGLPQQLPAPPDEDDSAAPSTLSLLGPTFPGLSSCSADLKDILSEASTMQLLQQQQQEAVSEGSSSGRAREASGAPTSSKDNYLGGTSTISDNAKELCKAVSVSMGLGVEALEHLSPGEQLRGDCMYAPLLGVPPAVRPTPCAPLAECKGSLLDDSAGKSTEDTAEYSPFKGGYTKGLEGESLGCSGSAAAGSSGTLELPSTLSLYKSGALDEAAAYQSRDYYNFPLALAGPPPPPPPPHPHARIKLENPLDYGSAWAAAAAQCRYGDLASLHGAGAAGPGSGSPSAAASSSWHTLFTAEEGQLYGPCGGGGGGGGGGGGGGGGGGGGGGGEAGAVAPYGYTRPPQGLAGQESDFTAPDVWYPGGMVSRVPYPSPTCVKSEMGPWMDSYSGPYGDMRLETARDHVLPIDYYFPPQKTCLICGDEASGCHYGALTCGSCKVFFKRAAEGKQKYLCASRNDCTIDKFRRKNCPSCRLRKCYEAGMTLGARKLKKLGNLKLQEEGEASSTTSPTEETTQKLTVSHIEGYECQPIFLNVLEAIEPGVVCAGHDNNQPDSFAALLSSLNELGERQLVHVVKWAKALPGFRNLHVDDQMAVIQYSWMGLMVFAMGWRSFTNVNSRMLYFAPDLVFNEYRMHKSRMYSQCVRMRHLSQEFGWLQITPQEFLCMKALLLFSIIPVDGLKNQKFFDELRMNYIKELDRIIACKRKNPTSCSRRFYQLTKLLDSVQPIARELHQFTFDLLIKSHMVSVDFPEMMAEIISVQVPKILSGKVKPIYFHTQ

[2] = target: T2, 17-beta-hydroxysteroid dehydrogenase type 3 (Homo sapiens, UniProt P37058)
T2 sequence (P37058 whole entry): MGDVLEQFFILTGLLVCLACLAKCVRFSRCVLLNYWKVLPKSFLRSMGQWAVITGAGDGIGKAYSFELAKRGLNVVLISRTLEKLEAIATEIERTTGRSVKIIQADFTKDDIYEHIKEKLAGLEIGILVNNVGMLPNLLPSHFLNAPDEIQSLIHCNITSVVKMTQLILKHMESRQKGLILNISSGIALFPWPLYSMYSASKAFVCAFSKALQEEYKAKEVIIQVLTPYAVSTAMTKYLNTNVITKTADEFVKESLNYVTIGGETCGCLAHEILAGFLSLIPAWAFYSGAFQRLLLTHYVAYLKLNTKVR
Description: Inhibition of human recombinant 17-beta-HSD3 expressed in human HeLa cells using androstenedione as substrate preincubated for 30 mins prior substrate addition measured after 120 mins by spectrophotometry

[3] = target: T3, 17-beta-hydroxysteroid dehydrogenase type 1 (Homo sapiens) (UniProt P14061); test: Inhibition of human recombinant 17-beta-HSD1 expressed in human HeLa cells using estrone as substrate preincubated for 30 mins prior substrate addition measured after 120 mins by spectrophotometry; assay type: cell-based
T3 sequence (whole entry): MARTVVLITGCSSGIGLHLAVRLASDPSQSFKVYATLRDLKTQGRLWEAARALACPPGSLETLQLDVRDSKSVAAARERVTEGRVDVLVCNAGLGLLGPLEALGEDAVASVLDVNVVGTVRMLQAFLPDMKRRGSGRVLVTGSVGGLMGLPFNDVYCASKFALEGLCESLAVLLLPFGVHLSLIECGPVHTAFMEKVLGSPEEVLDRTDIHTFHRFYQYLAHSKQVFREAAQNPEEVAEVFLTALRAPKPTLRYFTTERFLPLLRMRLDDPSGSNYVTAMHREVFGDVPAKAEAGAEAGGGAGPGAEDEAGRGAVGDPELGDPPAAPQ

[4] = target: T4, 17-beta-hydroxysteroid dehydrogenase type 2 (Homo sapiens) (UniProt P37059); test: Inhibition of human recombinant 17-beta-HSD2 expressed in human HeLa cells using estradiol as substrate preincubated for 30 mins prior substrate addition measured after 120 mins by spectrophotometry; assay type: cell-based
T4 sequence (whole entry): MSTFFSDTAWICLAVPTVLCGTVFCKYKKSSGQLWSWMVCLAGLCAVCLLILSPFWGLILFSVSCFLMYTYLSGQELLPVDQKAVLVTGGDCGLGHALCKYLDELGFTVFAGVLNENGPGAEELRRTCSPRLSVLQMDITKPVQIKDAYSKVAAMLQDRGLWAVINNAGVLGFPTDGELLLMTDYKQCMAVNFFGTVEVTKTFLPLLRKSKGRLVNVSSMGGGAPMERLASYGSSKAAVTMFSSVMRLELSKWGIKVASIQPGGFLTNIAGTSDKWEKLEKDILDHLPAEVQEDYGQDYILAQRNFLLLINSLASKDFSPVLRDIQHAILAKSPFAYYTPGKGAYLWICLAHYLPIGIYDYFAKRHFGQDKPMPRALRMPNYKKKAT

[5] = target: T5, Estrogen receptor (Homo sapiens) (UniProt P03372); test: Agonist activity at human Estrogen receptor ERalpha expressed in human HeLa cells assessed as DHT-induced response after 40 hrs by luciferase/beta-galactosidase-based reporter gene assay; assay type: functional, cell-based
T5 sequence (whole entry): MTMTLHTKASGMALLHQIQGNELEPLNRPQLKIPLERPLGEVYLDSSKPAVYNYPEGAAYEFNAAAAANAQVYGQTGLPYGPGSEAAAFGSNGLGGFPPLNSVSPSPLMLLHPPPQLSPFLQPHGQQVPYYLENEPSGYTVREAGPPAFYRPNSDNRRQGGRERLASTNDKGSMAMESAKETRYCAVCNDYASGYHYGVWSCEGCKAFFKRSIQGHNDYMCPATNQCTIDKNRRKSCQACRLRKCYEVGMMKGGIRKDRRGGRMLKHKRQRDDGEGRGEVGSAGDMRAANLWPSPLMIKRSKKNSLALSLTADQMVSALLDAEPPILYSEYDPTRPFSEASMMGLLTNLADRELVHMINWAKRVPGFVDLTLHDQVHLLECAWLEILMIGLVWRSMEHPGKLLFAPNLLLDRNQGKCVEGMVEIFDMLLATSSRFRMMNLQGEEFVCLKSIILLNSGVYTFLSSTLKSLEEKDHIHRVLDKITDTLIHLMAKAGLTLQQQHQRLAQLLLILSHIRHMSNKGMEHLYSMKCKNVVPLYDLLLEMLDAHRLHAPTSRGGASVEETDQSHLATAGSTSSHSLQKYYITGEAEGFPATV

[6] = target: T6, Glucocorticoid receptor (Homo sapiens) (UniProt P04150); test: Agonist activity at human Glucocorticoid receptor expressed in human HeLa cells assessed as DHT-induced response after 40 hrs by luciferase/beta-galactosidase-based reporter gene assay; assay type: functional, cell-based
T6 sequence (whole entry): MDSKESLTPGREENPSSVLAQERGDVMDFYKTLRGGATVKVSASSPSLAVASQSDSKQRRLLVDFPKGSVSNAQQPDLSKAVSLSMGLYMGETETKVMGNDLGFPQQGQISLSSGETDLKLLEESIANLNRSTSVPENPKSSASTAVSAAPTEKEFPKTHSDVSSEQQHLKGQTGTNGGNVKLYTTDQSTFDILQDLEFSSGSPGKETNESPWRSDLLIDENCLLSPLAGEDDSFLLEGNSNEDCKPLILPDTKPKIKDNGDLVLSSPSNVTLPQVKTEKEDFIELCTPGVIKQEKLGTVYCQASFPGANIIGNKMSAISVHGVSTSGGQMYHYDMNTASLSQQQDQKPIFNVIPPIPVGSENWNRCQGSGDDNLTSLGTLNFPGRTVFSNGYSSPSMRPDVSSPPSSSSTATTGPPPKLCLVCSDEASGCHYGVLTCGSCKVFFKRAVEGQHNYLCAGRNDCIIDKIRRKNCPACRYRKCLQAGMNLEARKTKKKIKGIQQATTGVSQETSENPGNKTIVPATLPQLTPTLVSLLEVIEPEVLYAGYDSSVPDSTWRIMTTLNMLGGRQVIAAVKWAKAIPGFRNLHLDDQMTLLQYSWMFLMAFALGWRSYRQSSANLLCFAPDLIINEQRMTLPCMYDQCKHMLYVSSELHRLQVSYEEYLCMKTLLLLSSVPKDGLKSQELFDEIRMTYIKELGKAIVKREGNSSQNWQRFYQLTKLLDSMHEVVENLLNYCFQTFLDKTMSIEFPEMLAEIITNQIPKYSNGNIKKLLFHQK

[7] = target: T1, Androgen receptor (Homo sapiens); test: Agonist activity at human androgen receptor expressed in human HeLa cells assessed as DHT-induced response after 40 hrs by luciferase/beta-galactosidase-based reporter gene assay; assay type: functional, cell-based
[8] = target: T5, Estrogen receptor (Homo sapiens); test: Antagonist activity at human ERalpha receptor expressed in human HeLa cells assessed as inhibition of DHT-induced response after 40 hrs by luciferase/beta-galactosidase-based reporter gene assay; assay type: functional, cell-based
[9] = target: T6, Glucocorticoid receptor (Homo sapiens); test: Antagonist activity at human GR receptor expressed in human HeLa cells assessed as inhibition of DHT-induced response after 40 hrs by luciferase/beta-galactosidase-based reporter gene assay; assay type: functional, cell-based

| Activity [1] | IC50 [2] [µM] | inhibition [3] | inhibition [4] | Activity [5] | Activity [6] | Activity [7] | Activity [8] | Activity [9] | SMILES |
| --- | --- | --- | --- | --- | --- | --- | --- | --- | --- |
| inactive | 0.074 | inactive | inactive | inactive | inactive | inactive | inactive | inactive | O=C1O/C(=C\c2ccc(O)c(Br)c2)C(=O)N1c1ccccn1 |
| inactive | 0.007 | inactive | inactive | inactive | inactive | inactive | inactive | inactive | COc1cccc(N2C(=O)/C(=C/c3ccc(O)c(Br)c3)OC2=S)c1 |
| inactive | 0.27 | inactive | inactive | inactive | inactive | inactive | inactive | inactive | COc1ccc(N2C(=O)/C(=C/c3ccc(O)c(OC)c3)OC2=S)cc1 |
| inactive | 0.09 | inactive | inactive | inactive | inactive | inactive | inactive | inactive | COc1ccc(CN2C(=O)/C(=C/c3ccc(O)c(Br)c3)SC2=S)cc1 |
| inactive | 0.02 | inactive | inactive | inactive | inactive | inactive | inactive | inactive | O=C1O/C(=C\c2ccc(O)c(Br)c2)C(=O)N1c1ccc(Cl)nc1 |
| inactive | 0.09 | inactive | inactive | inactive | inactive | inactive | inactive | inactive | COc1ccc(N2C(=O)/C(=C(/C)c3ccc(O)c(Br)c3)SC2=S)cc1 |
| inactive | 0.056 | inactive | inactive | inactive | inactive | inactive | inactive | inactive | CNC(=O)c1ccc(N2C(=O)O/C(=C\c3ccc(O)c(Br)c3)C2=O)cc1 |
| inactive | 0.057 | inactive | inactive | inactive | inactive | inactive | inactive | inactive | CC(=O)Nc1ccc(N2C(=O)O/C(=C\c3ccc(O)c(Br)c3)C2=O)cc1 |
| inactive | 0.012 | inactive | inactive | inactive | inactive | inactive | inactive | inactive | O=C1/C(=C/c2ccc(O)c(Br)c2)OC(=S)N1c1ccc2c(c1)OCO2 |
| inactive | 0.004 | inactive | inactive | inactive | inactive | inactive | inactive | inactive | COc1ccc(N2C(=O)O/C(=C\c3ccc(O)c(Br)c3)C2=O)cn1 |
| inactive | 0.005 | inactive | inactive | inactive | inactive | inactive | inactive | inactive | COc1ccc(N2C(=O)/C(=C/c3ccc(O)cc3Cl)OC2=S)cc1 |

Reference: ChEMBL document CHEMBL2016457, “Discovery of potent and orally bioavailable 17β-hydroxysteroid dehydrogenase type 3 inhibitors” (Bioorg Med Chem, 2012)
